{"source": "patent US8206920B2", "about": "“Diagnostic assay for the specific treatment of acute myeloid leukemia” (priority 2007, dated 2012)", "key": {"ND13 GFP cells": {"system": "ND13 GFP cells", "experiment": "Proliferation of cell cultures of transduced ND13 cells expressing GFP with ATRA (FIG. 3)", "type": "cell-based, mouse", "settings": "0.1 μM or 1 μM ATRA, p=0.026 at 24 hours, p<0.001 at 48, 72 and 96 h", "from_the_text": "(§1) The expression vector encoding GFP contained to the GFP gene under control of the spleen focus-forming virus promoter, integrated into the vector pSF91 (described in detail in Hildinger et al., J. Virol. 73, 4083-4089 (1999)). The MN1 expression vector contained the human MN1 gene under the control of the same promoter in the same vector backbone."}, "ND13 MN1 cells": {"system": "ND13 MN1 cells", "experiment": "Proliferation of cell cultures of transduced ND13 cells expressing MN1 with ATRA (FIG. 3)", "type": "cell-based, mouse", "settings": "0.1 μM or 1 μM ATRA, up to 96 h", "from_the_text": "as §1"}}}
{"smiles": "CC1=C(/C=C/C(C)=C/C=C/C(C)=C/C(=O)O)C(C)(C)CCC1", "note": "[ATRA, all-trans retinoic acid]", "values": [{"measurement": "proliferation (cell numbers)", "setting": "ND13 GFP cells", "result": "significant reduction of proliferation"}, {"measurement": "proliferation (cell numbers)", "setting": "ND13 MN1 cells", "result": "no significant reduction of proliferation"}]}
